Data taken from patent US20210002263A1, “HETEROARYLPYRIMIDINE COMPOUND AND FORMULATION FOR CONTROLLING HARMFUL ORGANISMS” (Nippon Soda Co., Ltd., priority 2018, published 2021).
Each block holds one compound with its values, some of them ahead of it.

Assays:
Mythimna separata = experiment: Efficacy test against Mythimna separata (treated artificial feed); type: in vivo; details: 1 μl of Emulsion (I) (5% active ingredient) in 0.8 g artificial feed; second-instar larvae; 25° C.; fifth day
Procedure: (§1) 5 parts of the compound of the present invention, 93.6 parts of dimethylformamide and 1.4 parts of polyoxyethylene alkyl aryl ether were mixed and dissolved to prepare Emulsion (I) including 5% of an active ingredient.
For the control, Emulsion (II) was prepared by mixing and dissolving 93.6 parts of dimethylformamide and 1.4 parts of polyoxyethylene alkyl aryl ether.
(§2) An insect mortality rate was calculated by the numerical equation shown below.
(§3) Insect mortality rate (%)={(Number of dead insects)/(Number of sample insects)}×100
0.8 g of a commercially available artificial feed (Insecta LFS, manufactured by Nosan Corporation) and 1 μl of Emulsion (I) were mixed thoroughly. Thereby, a test feed was obtained.
The test feed was placed in an amount of 0.2 g in each of the treatment areas of a plastic test container (volume: 1.4 ml). Subsequently, two second-instar larvae of Mythimna separata were inoculated into each treatment area, and the test container was sealed with a plastic lid in order to prevent the larvae from escaping. The sealed container was placed in a thermostatic chamber at 25° C., and the insect mortality rate and the amount of feed consumed were determined on the fifth day. The test was performed twice.
As the control areas, the insect mortality rate and the amount of feed consumed were determined in the same manner as that described in Test Example 1, with the exception of replacing Emulsion (I) with Emulsion (II).

Plutella xylostella = experiment: Efficacy test against Plutella xylostella (cabbage leaf dip); type: in vivo; details: foliar, 72 h, cabbage leaves soaked 30 seconds, second-instar larvae, 3 days after inoculation, read-out: insect mortality rate
Procedure: as §1, §2, §3
Emulsion (I) was diluted with water so that the concentration of the compound of the present invention was 125 ppm. Cabbage leaves were soaked in the diluted liquid for 30 seconds. Subsequently, the cabbage leaves were put on Petri dishes, followed by inoculating 5 second-instar larvae of Plutella xylostella. The Petri dishes were placed in a thermostatic chamber at a temperature of 25° C. and humidity of 60%. Mortality was investigated 3 days after inoculation, and the insect mortality rate was calculated. The test was performed twice.

Nilaparvata lugens = experiment: Efficacy test against Nilaparvata lugens (rice seedling dip); type: in vivo; details: 168 h, rice seedlings soaked 30 seconds, second-instar larvae, 7 days after inoculation, read-out: insect mortality rate
Procedure: as §1, §2, §3
Emulsion (I) was diluted with water so that the concentration of the compound of the present invention was 125 ppm. Rice seedlings were soaked in the diluted liquid for 30 seconds, and subjected to air-drying. Subsequently, the rice seedlings were placed in plastic cases, followed by inoculating 5 second-instar larvae of Nilaparvata lugens. The plastic cases were placed in a thermostatic chamber at a temperature of 25° C. and humidity of 65%. Mortality was investigated 7 days after inoculation, and the insect mortality rate was calculated. The test was performed twice.

Phyllotreta striolata = experiment: Efficacy test against Phyllotreta striolata (spray on bok-choi seedlings); type: in vivo; details: 168 h, sprayed on bok-choi seedlings, adults, 7 days after inoculation, read-out: insect mortality rate
Procedure: as §1, §2, §3
Emulsion (I) was diluted with water so that the concentration of the compound of the present invention was 125 ppm, to prepare a diluted liquid for testing. The aforementioned diluted liquid was sprayed on bok-choi seedlings (7th major leaf-development period) planted in No. 3 pots. After the bok-choi seedlings were subjected to air-drying, the seedlings were placed in plastic cups, followed by inoculating 10 adult Phyllotreta striolata. The plastic cups were stored in a thermostatic chamber at a temperature of 25° C. and humidity of 65%. Mortality was investigated 7 days after inoculation, and the insect mortality rate was calculated. The test was performed twice.

Aphis craccivora = experiment: Efficacy test against Aphis craccivora (spray on black-eyed pea plants); type: in vivo; details: in Vigna unguiculata, 96 h, sprayed on black-eyed pea plants, nymphs, 4 days after spraying, read-out: insect mortality rate
Procedure: as §1, §2, §3
Black-eyed pea plants were raised in No. 3 pots and the primary leaves were inoculated with nymphs of Aphis craccivora. Emulsion (I) was diluted with water so that the concentration of the compound of the present invention was 125 ppm. Subsequently, the aforementioned diluted liquid was sprayed on the black-eyed pea plants on which the nymphs of Aphis craccivora were parasitic. The aforementioned black-eyed pea plants were then placed in a thermostatic chamber with a temperature of 25° C. and humidity of 60%. Mortality was investigated 4 days after spraying was carried out, and the insect mortality rate of Aphis craccivora was calculated. The test was performed twice.

Structure (SMILES): CCS(=O)(=O)c1cnc(NC)nc1-c1nc2cc(C(F)(F)F)cnc2n1C [A-16]
insect mortality rate or amount of feed consumed relative to control area (Mythimna separata): mortality rate against Mythimna separata was 100%, or the amount of feed consumed was 10% or less

Structure (SMILES): CCS(=O)(=O)c1cnc(-c2ncccn2)nc1-c1nc2cc(C(F)(F)F)cnc2n1C [A-2, 2-(5-(ethylsulfonyl)-[2,2′-bipyrimidin]-4-yl)-3-methyl-6-(trifluoromethyl)-3H-imidazo[4,5-b]pyridine]
insect mortality rate or amount of feed consumed relative to control area (Mythimna separata): mortality rate against Mythimna separata was 100%, or the amount of feed consumed was 10% or less
mortality at 125 ppm (Plutella xylostella): ≥ 80%
mortality at 125 ppm (Nilaparvata lugens): ≥ 80%
mortality at 125 ppm (Phyllotreta striolata): ≥ 80%
mortality at 125 ppm (Aphis craccivora): ≥ 80%

Structure (SMILES): CCS(=O)(=O)c1cnc(-n2cccn2)nc1-c1nc2cc(C(F)(F)F)cnc2n1C [A-20]
insect mortality rate or amount of feed consumed relative to control area (Mythimna separata): mortality rate against Mythimna separata was 100%, or the amount of feed consumed was 10% or less

Structure (SMILES): CCS(=O)(=O)c1cnc(-n2ncnc2N)nc1-c1nc2cc(C(F)(F)F)cnc2n1C [A-12, 1-(5-(ethylsulfonyl)-4-(3-methyl-6-(trifluoromethyl)-3H-imidazo[4,5-b]pyridin-2-yl)pyrimidin-2-yl)-1H-1,2,4-triazol-5-amine]
insect mortality rate or amount of feed consumed relative to control area (Mythimna separata): mortality rate against Mythimna separata was 100%, or the amount of feed consumed was 10% or less
mortality at 125 ppm (Plutella xylostella): ≥ 80%
mortality at 125 ppm (Nilaparvata lugens): ≥ 80%
mortality at 125 ppm (Phyllotreta striolata): ≥ 80%

Structure (SMILES): CCS(=O)(=O)c1cnc(N)nc1-c1nc2cc(SC(F)(F)F)ccc2o1 [A-10]
insect mortality rate or amount of feed consumed relative to control area (Mythimna separata): mortality rate against Mythimna separata was 100%, or the amount of feed consumed was 10% or less

melting point: 247 to 249 °C
Structure (SMILES): CCS(=O)(=O)c1cnc(-n2nccc2N)nc1-c1nc2cc(C(F)(F)F)cnc2n1C [A-27, 1-(5-(ethylsulfonyl)-4-(3-methyl-6-(trifluoromethyl)-3H-imidazo[4,5-b]pyridin-2-yl)pyrimidin-2-yl)-1H-pyrazol-5-amine]

Structure (SMILES): CCS(=O)(=O)c1cnc(NCCN)nc1-c1nc2cc(C(F)(F)F)cnc2n1C [A-28]
insect mortality rate or amount of feed consumed relative to control area (Mythimna separata): mortality rate against Mythimna separata was 100%, or the amount of feed consumed was 10% or less

Structure (SMILES): CCS(=O)(=O)c1cnc(N(C)C)nc1-c1nc2cc(C(F)(F)F)cnc2n1C [A-17]
insect mortality rate or amount of feed consumed relative to control area (Mythimna separata): mortality rate against Mythimna separata was 100%, or the amount of feed consumed was 10% or less

melting point: 192 to 195 °C
Structure (SMILES): CCS(=O)(=O)c1cnc(-c2ncccn2)nc1-c1nc2cc([S+]([O-])C(F)(F)F)ccc2o1 (stereo not drawn) [A-8, 2-(5-(ethylsulfonyl)-[2,2′-bipyrimidin]-4-yl)-5-((trifluoromethyl)sulfinyl)benzo[d]oxazole]

melting point: 118 to 124 °C
Structure (SMILES): CCS(=O)(=O)c1cnc(-c2ncccn2)nc1-c1nc2cc(S(=O)(=O)C(F)(F)F)ccc2o1 [A-9, 2-(5-(ethylsulfonyl)-[2,2′-bipyrimidin]-4-yl)-5-((trifluoromethyl)sulfonyl)benzo[d]oxazole]

Structure (SMILES): CCS(=O)(=O)c1cnc(N)nc1-c1nc2cc(C(F)(F)F)cnc2n1C [A-13]
insect mortality rate or amount of feed consumed relative to control area (Mythimna separata): mortality rate against Mythimna separata was 100%, or the amount of feed consumed was 10% or less

Structure (SMILES): CCOC(=O)c1cnn(-c2ncc(S(=O)(=O)CC)c(-c3nc4cc(C(F)(F)F)cnc4n3C)n2)c1N [A-26, ethyl 5-amino-1-(5-(ethylsulfonyl)-4-(3-methyl-6-(trifluoromethyl)-3H-imidazo[4,5-b]pyridin-2-yl)pyrimidin-2-yl)-1H-pyrazole-4-carboxylate]
insect mortality rate or amount of feed consumed relative to control area (Mythimna separata): mortality rate against Mythimna separata was 100%, or the amount of feed consumed was 10% or less
mortality at 125 ppm (Plutella xylostella): ≥ 80%
mortality at 125 ppm (Phyllotreta striolata): ≥ 80%
mortality at 125 ppm (Aphis craccivora): ≥ 80%

melting point: 223 to 225 °C
Structure (SMILES): CCS(=O)(=O)c1cnc(-c2ncccn2)nc1-c1nc2cc(SC(F)(F)F)ccc2o1 [A-7, 2-(5-(ethylsulfonyl)-[2,2′-bipyrimidin]-4-yl)-5-((trifluoromethyl)thio)benzo[d]oxazole]

Structure (SMILES): CCS(=O)(=O)c1cnc(-c2ncn(C)n2)nc1-c1nc2cc(C(F)(F)F)cnc2n1C [A-5]
insect mortality rate or amount of feed consumed relative to control area (Mythimna separata): mortality rate against Mythimna separata was 100%, or the amount of feed consumed was 10% or less

Structure (SMILES): CCS(=O)(=O)c1cnc(-n2ccc(N)n2)nc1-c1nc2cc(C(F)(F)F)cnc2n1C [A-25]
insect mortality rate or amount of feed consumed relative to control area (Mythimna separata): mortality rate against Mythimna separata was 100%, or the amount of feed consumed was 10% or less

melting point: 227 to 229 °C
Structure (SMILES): CCS(=O)(=O)c1cnc(NN)nc1-c1nc2cc(C(F)(F)F)cnc2n1C [A-24, 2-(5-(ethylsulfonyl)-2-hydrazineylpyrimidin-4-yl)-3-methyl-6-(trifluoromethyl)-3H-imidazo[4,5-b]pyridine]

Structure (SMILES): CCS(=O)(=O)c1cnc(OC)nc1-c1nc2cc(C(F)(F)F)cnc2n1C [A-23]
insect mortality rate or amount of feed consumed relative to control area (Mythimna separata): mortality rate against Mythimna separata was 100%, or the amount of feed consumed was 10% or less
